This is an account of results in patent publication US20260258050A1, “IMMUNOMODULATOR” (HITGEN INC., priority 2023, published 2026).

SMILES strings stand for the structures. Bounds are passed on as bounds.

One test concerns the target T1, Human IL-17A (Homo sapiens, UniProt Q16552).
T1 sequence (Q16552 20-155 limits assumed): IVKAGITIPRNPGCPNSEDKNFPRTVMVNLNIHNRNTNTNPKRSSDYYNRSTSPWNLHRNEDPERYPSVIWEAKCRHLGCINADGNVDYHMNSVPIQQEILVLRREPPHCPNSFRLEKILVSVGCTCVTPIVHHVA
Description: Inhibition of human IL-17A protein-induced GROα/CXCL1 production in HT-29 cells. The format is cell-based. Also on record: purchased R&D 317-ILB; host or cells: added exogenously to HT-29 cells. Conditions: 30 ng/mL human IL-17A protein, 48 h, GROα in supernatant by ELISA kit, read-out: Inhibitory IC50 of compounds on HT-29 cell GROα/CXCL1. The method, boiled down:
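Compound dilutions were preincubated 1 h at 37 °C with 30 ng/mL human IL-17A, then added to HT-29 cells (5×10^4/well) for 48 h at 37 °C. GROα in supernatant quantified by ELISA; IC50 for inhibition of its production. Positive control: IL-17A antibody at […].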

For the next test, the target named is T2, Human IL-17AF (Homo sapiens, UniProt Q16552+Q96PD4).
T2 construct: purchased Sino Biological Inc. CT047-H08H
T2 sequence (Q16552 24-155): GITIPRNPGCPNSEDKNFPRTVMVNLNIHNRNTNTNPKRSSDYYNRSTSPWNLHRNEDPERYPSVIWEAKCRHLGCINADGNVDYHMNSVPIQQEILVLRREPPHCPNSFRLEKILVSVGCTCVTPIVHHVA
T2 sequence (Q96PD4 31-163): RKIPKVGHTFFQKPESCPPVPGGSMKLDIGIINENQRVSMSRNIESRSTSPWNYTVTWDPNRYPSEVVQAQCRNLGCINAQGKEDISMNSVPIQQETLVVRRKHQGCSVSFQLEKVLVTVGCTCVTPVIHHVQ
Put plainly: IL-17AF ELISA (competitive ELISA, IL-17AF/IL-17Ra receptor-ligand binding). The following applies: human IL-17AF coated plate, human IL-17Ra, read-out: IC50, inhibitory activity of compounds on human IL-17AF. The method, boiled down: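 Plates coated with 0.625 μg/ml human IL-17AF in PBS pH 7.4 (37 °C, 30 min) and milk-blocked. Compounds pre-incubated with coated IL-17AF for 10 min at 25 °C, then IL-17Ra added (as 100 nM solution) for 30 min. Bound receptor detected by anti-Fc HRP/TMB at 450 nm; IC50 from variable-slope normalized fit versus DMSO control and blank.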

`CCn1nccc1C(=O)N[C@H](C(=O)Nc1ccc2c(c1)COCCc1n[nH]c(C)c1-2)C(C1CC1)C1CC1` [compound 3]: the IC50 at Human IL-17A and on Human IL-17AF was no more than 100 nM throughout.

Consider `Cc1[nH]nc2c1-c1ccc(NC(=O)[C@@H](NC(=O)c3ccnn3C3CC3)C(C3CC3)C3CC3)cc1COCC2` [compound 6], for which the IC50 at Human IL-17A and at Human IL-17AF was 100 to 500 nM throughout.

With `Cc1[nH]nc2c1-c1cnc(NC(=O)[C@@H](NC(=O)c3ccnn3C[C@@H]3C[C@H]3F)C(C3CC3)C3CC3)cc1COCC2` [compound 125], the IC50 at Human IL-17A is no more than 100 nM; at Human IL-17AF, 100 to 500 nM.

Take `Cc1[nH]nc2c1-c1cc(F)c(NC(=O)[C@@H](NC(=O)c3ccnn3C(C)C)C(C3CC3)C3CC3)cc1CN(C)C(=O)C2` [compound 132]: the IC50 at Human IL-17A was no more than 100 nM; on Human IL-17AF it was 100 to 500 nM.

In the case of `CCn1nccc1C(=O)N[C@H](C(=O)Nc1cc2c(cc1F)-c1c(n[nH]c1C)CC(=O)N(C)C2)C(C1CC1)C1CC1` [compound 133], the IC50 on Human IL-17A and at Human IL-17AF was 100 to 500 nM in each case.

Regarding `Cc1[nH]nc2c1-c1cc(F)c(NC(=O)[C@@H](NC(=O)c3ccnn3C(C)C)C(C3CC3)C3CC3)cc1CN(C1CC1)C(=O)C2` [compound 136], the IC50 on Human IL-17A and on Human IL-17AF was no more than 100 nM in each case.

Turning to `CCN1Cc2cc(NC(=O)[C@@H](NC(=O)c3ccnn3C(C)C)C(C3CC3)C3CC3)c(F)cc2-c2c(n[nH]c2C)CC1=O` [compound 142], the IC50 on Human IL-17A and on Human IL-17AF was no more than 100 nM each time.

For `CCN1Cc2cc(NC(=O)[C@@H](NC(=O)c3ccnn3CC)C(C3CC3)C3CC3)c(F)cc2-c2c(n[nH]c2C)CC1=O` [compound 143], the IC50 on Human IL-17A and at Human IL-17AF was no more than 100 nM throughout.

For `Cc1[nH]nc2c1-c1cc(F)c(NC(=O)[C@@H](NC(=O)c3ccnn3C(C)C)C(C3CC3)C3CC3)cc1CN(CC(F)F)C(=O)C2` [compound 144], the IC50 on Human IL-17A was no more than 100 nM; at Human IL-17AF, 100 to 500 nM.

With `CCn1nccc1C(=O)N[C@H](C(=O)Nc1cc2c(cc1F)-c1c(n[nH]c1C)CC(=O)N(CC(F)F)C2)C(C1CC1)C1CC1` [compound 145], the IC50 on Human IL-17A and on Human IL-17AF was no more than 100 nM in each case.

As for `Cc1[nH]nc2c1-c1cc(F)c(NC(=O)[C@@H](NC(=O)c3ccnn3C(C)C)C(C3CC3)C3CC3)cc1CN(CC(C)(F)F)C(=O)C2` [compound 148], the values for the IC50 on Human IL-17A and on Human IL-17AF were no more than 100 nM and 100 to 500 nM, respectively.

Regarding `CCn1nccc1C(=O)N[C@H](C(=O)Nc1cc2c(cc1F)-c1c(n[nH]c1C)CC(=O)N(CC(C)(F)F)C2)C(C1CC1)C1CC1` [compound 149], the IC50 on Human IL-17A and at Human IL-17AF was no more than 100 nM throughout.

For the compound `Cc1[nH]nc2c1-c1cc(F)c(NC(=O)[C@@H](NC(=O)c3ccnn3C(C)C)C(C3CC3)C3CC3)cc1CN(C(C)C)C(=O)C2` [compound 150], the IC50 at Human IL-17A and at Human IL-17AF was no more than 100 nM in each case.

Consider `CCn1nccc1C(=O)N[C@H](C(=O)Nc1cc2c(cc1F)-c1c(n[nH]c1C)CC(=O)N(C(C)C)C2)C(C1CC1)C1CC1` [compound 151], for which the IC50 on Human IL-17A and at Human IL-17AF was no more than 100 nM each time.

As for `Cc1[nH]nc2c1-c1cc(F)c(NC(=O)[C@@H](NC(=O)c3ccnn3C(C)C)C(C3CC3)C3CC3)cc1CN(CC(F)(F)F)C(=O)C2` [compound 152], the IC50 at Human IL-17A was no more than 100 nM; on Human IL-17AF, 100 to 500 nM.

Take `Cc1[nH]nc2c1-c1cc(F)c(NC(=O)[C@@H](NC(=O)c3ccnn3C(C)C)C(C3CC3)C3CC3)cc1CN(CC1CC1)C(=O)C2` [compound 153]: the IC50 on Human IL-17A and at Human IL-17AF was no more than 100 nM throughout.

`CCN1CCc2n[nH]c(C)c2-c2cc(F)c(NC(=O)[C@@H](NC(=O)c3ccnn3C(C)C)C(C3CC3)C3CC3)cc2C1` [compound 156]: the IC50 on Human IL-17A and on Human IL-17AF was 100 to 500 nM throughout.

As for `Cc1[nH]nc2c1-c1cc(F)c(NC(=O)[C@@H](NC(=O)c3ccnn3C(C)C)C(C3CC3)C3CC3)cc1CN(CC(F)F)CC2` [compound 158], the IC50 at Human IL-17A is no more than 100 nM; on Human IL-17AF it was 100 to 500 nM.

Turning to `CCn1nccc1C(=O)N[C@H](C(=O)Nc1cc2c(cc1F)-c1c(n[nH]c1C)CCN(CC(F)F)C2)C(C1CC1)C1CC1` [compound 159], the IC50 on Human IL-17A and at Human IL-17AF was no more than 100 nM in each case.

In the case of `Cc1[nH]nc2c1-c1cc(F)c(NC(=O)[C@@H](NC(=O)c3ccnn3C(C)C)C(C3CC3)C3CC3)cc1CN(CC(C)(F)F)CC2` [compound 160], the IC50 was no more than 100 nM at Human IL-17A and 100 to 500 nM at Human IL-17AF.

For the compound `CCn1nccc1C(=O)N[C@H](C(=O)Nc1cc2c(cc1F)-c1c(n[nH]c1C)CCN(CC(C)(F)F)C2)C(C1CC1)C1CC1` [compound 161], the IC50 at Human IL-17A and at Human IL-17AF was no more than 100 nM in each case.

`Cc1[nH]nc2c1-c1cc(F)c(NC(=O)[C@@H](NC(=O)c3ccnn3C(C)C)C(C3CC3)C3CC3)cc1CN(CC(F)(F)F)CC2` [compound 164]: the figures for the IC50 on Human IL-17A and on Human IL-17AF were no more than 100 nM and 100 to 500 nM, respectively.

In the case of `Cc1[nH]nc2c1-c1cc(F)c(NC(=O)[C@@H](NC(=O)c3ccnn3C(C)C)C(C3CC3)C3CC3)cc1CN(C1CC1)CC2` [compound 165], the figures for the IC50 at Human IL-17A and on Human IL-17AF were no more than 100 nM and 100 to 500 nM, respectively.
